From BindingDB's records for doi:10.1021/jm00116a004 (Northeastern University, 1992)

Key:
[1] = target: D(2) dopamine receptor (Sus scrofa); experiment: The compound was evaluated for the binding affinity towards dopamine receptor D2 at high affinity state.
[2] = target: D(1A) dopamine receptor (Canis familiaris); experiment: The compound was evaluated for the dissociation constant for inhibiting the binding of [3H]-SCH- 23390 at dopamine receptor D1
[3] = target: D(1A) dopamine receptor (Canis familiaris); experiment: The compound was evaluated for the dissociation constant for inhibiting the binding of [3H]-SCH- 23390 at Dopamine receptor D1
[4] = target: D(2) dopamine receptor (Sus scrofa); experiment: The compound was evaluated for the binding affinity towards Dopamine receptor D2 at high affinity state.
[5] = target: D(2) dopamine receptor (Sus scrofa); experiment: The compound was evaluated for the binding affinity towards Dopamine receptor D2 at low affinity state.

SMILES: CN1CCc2c(cc(O)c(O)c2Cl)C(c2ccccc2)C1 (configuration not stated)
- Ki [1]: 77 nM
- Ki [2]: 0.9 nM

SMILES: Oc1cc2c(c(Br)c1O)CCNCC2c1ccccc1 (configuration not stated)
- Ki [3]: 12 nM
- Ki [4]: 39 nM
- Ki [5]: 2000 nM

SMILES: CN1CCc2c(cc(O)c(O)c2Br)C(c2ccccc2)C1 (configuration not stated)
- Ki [1]: 490 nM
- Ki [2]: 1.2 nM
